The source of these data is patent publication US20250092383A1, “COMPOUNDS AND METHODS FOR FBXO22-MEDIATED PROTEIN DEGRADATION” (Northwestern University, priority 2023, published 2025).

Common to all, as to type: cell-based
Assay [1] addresses T1, FKBP12-EGFP (Homo sapiens, UniProt P62942).
T1 construct: expressed in transfected cells
The assay is described as follows: Fluorescence quantification of FKBP12-EGFP levels in HEK293T cells. As to conditions: HEK293T CRISPR activation cells with FBXO22-activating sgRNAs; 2 μM, 24 hours. As to the method:
FIGS. 1A-1E show an E3 ligase focused CRISPR-Cas9 transcriptional activation screen identifies FBXO22 that supports 22-SLF-induced reduction in FKBP12-EGFP expression levels. FIG. 1A is a schematic representation of the steps in the CRISPR-Cas9 transcriptional activation screen. […] FIG. 1C is a volcano plot showing the E3 ligase focused CRISPR-Cas9 transcriptional activation screen for FKBP12-EGFP degradation after treatment of 2 μM 22-SLF in HEK293T CRISPR-Cas9 transcriptional activation cells for 24 hours. […] The statistical significance was evaluated through unpaired two-tailed Student's t-tests, comparing cells transduced with FBXO22 sgRNA to control sgRNA. Statistical significance denoted ****P<0.0001. […] The statistical significance was evaluated through unpaired two-tailed Student's t-tests, comparing cells treated with 22-SLF to DMSO. Statistical significance denoted as ***P<0.001 and ns: not significant.
FIGS. 6A-6E show generation of CRISPR-Cas9 transcriptional activation cells for the discovery of E3 ligases supporting the degradation of FKBP12-EGFP. […] The statistical significance was evaluated through unpaired two-tailed Student's t-tests, comparing cells treated with Len-SLF or SLF to DMSO. […] The statistical significance was evaluated through unpaired two-tailed Student's t-tests, comparing cells transduced with IL-1β sgRNA to control sgRNA. […]

In assay [2] the target is T2, FKBP12 (mouse FBXO22) (UniProt P62942+Q78JE5).
T2 construct: expressed in transfected cells; host or cells: HEK293T
T2 sequence (P62942 2-108): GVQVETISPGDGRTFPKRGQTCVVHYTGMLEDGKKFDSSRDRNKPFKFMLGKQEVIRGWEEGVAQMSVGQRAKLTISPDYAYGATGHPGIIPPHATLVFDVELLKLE
T2 sequence (Q78JE5 whole entry): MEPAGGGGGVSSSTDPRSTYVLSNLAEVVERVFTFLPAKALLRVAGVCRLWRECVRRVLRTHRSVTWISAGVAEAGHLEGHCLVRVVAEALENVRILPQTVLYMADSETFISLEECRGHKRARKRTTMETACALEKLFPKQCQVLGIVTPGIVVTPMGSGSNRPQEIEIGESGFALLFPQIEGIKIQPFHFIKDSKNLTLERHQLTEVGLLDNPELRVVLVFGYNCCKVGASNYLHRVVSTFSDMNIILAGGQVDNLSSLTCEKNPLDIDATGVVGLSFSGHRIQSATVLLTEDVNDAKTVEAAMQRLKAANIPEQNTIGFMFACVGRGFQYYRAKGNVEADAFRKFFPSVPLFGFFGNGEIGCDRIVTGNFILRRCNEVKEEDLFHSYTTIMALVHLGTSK
T2 sequence (P63208 whole entry partner): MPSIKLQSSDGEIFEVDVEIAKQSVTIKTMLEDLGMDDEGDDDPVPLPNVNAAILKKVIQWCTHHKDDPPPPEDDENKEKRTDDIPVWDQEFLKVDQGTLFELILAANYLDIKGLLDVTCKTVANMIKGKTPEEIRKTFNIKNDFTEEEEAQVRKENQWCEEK
Briefly: FKBP12 degradation in HEK293T cells expressing mouse FBXO22. To be noted: HEK293T cells expressing mouse FBXO22 wildtype. An excerpt:
(§1) FIGS. 3A-3H show FBXO22 C227 and C228 are involved in 22-SLF-mediated degradation of FKBP12. […] Among 5,650 quantified IA-DTB-modified peptides, four cysteines were identified on FBXO22 (C83, C117, C228, and C365). […] Data are presented as the mean values (n=2 biological independent samples for DMSO treatment; n=3 biological independent samples for 22-SLF Treatment). […] The bag graph represents quantification of the FLAG-FKBP12/HSP90 protein content. Data are presented as mean values (n=2 biological independent samples). […] The bar graph represents quantification of the FLAG-FKBP12/HSP90 protein content. Data are presented as the mean values (n=2 biological independent samples).
(§2) Intriguingly, the peptide sequence containing the two consecutive cysteines (C227 and C228) is identical between human and mouse (FIG. 3f). To explore whether mouse FBXO22 can facilitate 22-SLF-induced FKBP12 degradation and if the conserved cysteines (C226 and C227 in mouse FBXO22) are pivotal, HEK293T cells expressing mouse FBXO22 wildtype, C226A, C227A, and C226AC227A, were generated.

Assay [3] addresses T3, FKBP12 (mouse FBXO22) (UniProt P62942+Q78JE5, C226A/C227A).
T3 construct: expressed in transfected cells; host or cells: HEK293T
The assay is described as above. To be noted: HEK293T cells.
From the text: as §1, §2

Assay [4] concerns FKBP12 (mouse FBXO22). The assay is described as above. As to conditions: HEK293T cells.
From the text: as §1, §2

The target of assay [5] is FKBP12 (Homo sapiens, UniProt P62942). Briefly: Global proteomic analysis in HEK293T cells expressing FBXO22 wildtype or C227AC228A. Details: expressed in transfected cells; host or cells: HEK293T. To be noted: 0.5 μM, 24 hours.
Sequence of FKBP12 (P62942 whole entry): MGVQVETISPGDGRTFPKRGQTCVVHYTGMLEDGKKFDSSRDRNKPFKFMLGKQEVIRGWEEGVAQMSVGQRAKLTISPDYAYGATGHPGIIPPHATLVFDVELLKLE
From the text: as §1
FIGS. 9A-9B show FBXO22 C227 and C228 are involved in 22-SLF-mediated degradation of FKBP12.
Global proteomic analysis in FBXO22 wildtype- and C227AC228A-expressing HEK293T cells was conducted, comparing the effects of 22-SLF treatment on the expression level of FKBP12. […] Using this predicted human FBXO22 structure, a model structure of the interaction with the electrophilic portion of 22-SLF was conducted.

T1 sequence (P62942 whole entry): as above
T3 sequence (P62942 2-108): as the sequence (P62942 2-108) above
T3 sequence (Q78JE5 whole entry C226A/C227A): as the sequence (Q78JE5 whole entry) above, with C226A, C227A counted along it

As to `CCC(C)(C)C(=O)C(=O)N1CCCC[C@H]1C(=O)O[C@H](CCc1ccc(OC)c(OC)c1)c1cccc(OCC(=O)NCCCOCCOCCOCCCN(C(=O)CCl)C(C(=O)NCc2ccccc2)c2nc3ccccc3s2)c1` (stereo partly drawn) [22-SLF], the “FKBP12-EGFP expression in FBXO22-activated cells” value in assay [1] is given as “loss of FKBP12-EGFP expression”. In addition, in assay [2], the “FKBP12 degradation, mouse FBXO22 wildtype” value is on record as “induced FBKP12 degradation”. Moreover, the “FKBP12 degradation, mouse FBXO22 double mutant C226AC227A” value in assay [3] is “fully blocked the degradation”. Besides, the “FKBP12 degradation, mouse FBXO22 single mutants C226A and C227A” value in assay [4] is “partially impeded degradation”. The “FKBP12 degradation in global proteomics, FBXO22 C227AC228A cells” value in assay [5] (HEK293T HA-FBXO22 C227AC228A) is recorded as “no degradation observed”. Moreover, in assay [5] (HEK293T HA-FBXO22 wildtype), the “Proteins degraded among 7,936 quantified proteins, FBXO22 wildtype cells” value is recorded as “FKBP12 was the only protein degraded”.
